Measurements taken from US8933106B2, “2-(4-substituted phenylamino) polysubstituted pyridine compounds as inhibitors of non-nucleoside HIV reverse transcriptase, preparation methods and uses thereof” (Institute of Pharmacology and Toxicology Academy of …, priority 2008, dated 2015).
Values after ≈ are worked out from the molar mass of the structure shown.

Key:
HIV-1IIIB virus strain = experiment: Anti-HIV activity test (MT-2 cell model), p24 antigen ELISA; type: cell-based; conditions: MT-2 cells; for EC50: Human immunodeficiency virus 1, MT2, HIV-1IIIB, 4th day, p24 antigen; for SI(CC50/EC50): ratio of toxicity CC50 value to activity EC50 value
Method: Please refer to the document (Jiang, S., et al. Antimicrob. Agents Chemother. 2004, 48, 4349-4359). In a 96-pore cell culture plate, 50 μl of different concentrations of compound solutions were respectively mixed with equal-volume of HIV-1IIIB virus strain (100 TCID50), and incubated at 37° C. for 30 min, and then 100 μl MT-2 cell (1×10^5/mL, RPIM 1640 culture medium containing 10% serum) was added, and mixed homogenously, followed by incubation at 37° C. overnight. On the second day, 150 μl of the supernatant was sucked out, and equal-volume of fresh culture medium was replenished, followed by further incubation at 37° C. for 3 days. On the 4th day, cytopathic effect (CPE) was recorded. Thereafter, 100 μl of culture supernatant was sucked out, virus particles were split using 5% Triton X-100, and p24 antigen therein was tested by using ELISA assay. Briefly, a ELISA plate was coated with HIVIG (2 μg/mL), and blocked with 1% fat-free milk, then a virus lysate was added therein, followed by incubation at 37° C. for 60 min. After fully washing the plate, anti-p24 monoclonal antibody-183-12H-5C, biotin-labeled goat antimouse antibody and […]-labeled horseradish peroxidase were added in sequence. Then, after developing with TMB, OD was tested at 450 nm. The 50% effective concentration (EC50) of the compound was calculated using CalcuSyn software.

[1] = Cytotoxicity test of the compound (MT-2 cells, XTT); type: cell-based; conditions: human, 4th day
Method: Please refer to the document (Jiang, S., et al. Antimicrob. Agents Chemother. 2004, 48, 4349-4359). In a 96-pore cell culture plate, 50 μl of different concentrations of compound solutions were respectively mixed with equal-volume of PBS, and incubated at 37° C. for 30 min, and then 100 μl MT-2 (or H9) cells (1×10^5/mL, RPIM 1640 culture medium containing 10% serum) was added, and mixed homogenously, followed by incubation at 37° C. overnight. On the second day, 150 μl of the supernatant was sucked out, and equal-volume of fresh culture medium was replenished, followed by further incubation at 37° C. for 3 days. On the 4th day, 50 μl of a XTT solution (1 mg/mL) containing PMS as freshly prepared was added. After 4 h, OD at 450 nm was tested. The 50% cytotoxicity concentration (CC50) of the compound was calculated using CalcuSyn software.

Row | Structure (SMILES) | melting point [°C] | EC50 (HIV-1IIIB virus strain) [µg/mL] | SI(CC50/EC50) (HIV-1IIIB virus strain) | CC50 at 4 days [1] [µg/mL]
1 | Cc1cc([N+](=O)[O-])cc(C)c1Oc1ccc([N+](=O)[O-])c(Nc2ccc(C#N)cc2)n1 | 250 to 252 | – | – | –
2 | Cc1cc(C)c(Oc2ccc([N+](=O)[O-])c(Nc3ccc(C#N)cc3)n2)c(C)c1 [Compound I-3, 2-(4-cyanophenylamino)-6-(2,4,6-trimethylphenoxy)-3-nitropyridine] | – | 0.118 (≈ 0.315 µM) | 4,264 | 503 (≈ 1340 µM)
3 | Cc1cc(C=CC#N)cc(C)c1Oc1ccc([N+](=O)[O-])c(Nc2ccc(C#N)cc2)n1 [Compound I-5, 2-(4-cyanophenylamino)-6-(2,6-dimethyl-4-cyanovinylphenoxy)-3-nitropyridine] | – | 0.005 (≈ 0.0122 µM) | 4,956 | 24.8 (≈ 60.2 µM)
4 | Cc1cc(C#N)cc(C)c1Oc1ccc(N)c(Nc2ccc(C#N)cc2)n1 [Compound I-6, 3-amino-2-(4-cyanophenylamino)-6-(2,6-dimethyl-4-cyanophenoxy)pyridine] | – | 0.0005 (≈ 0.00141 µM) | 22,560 | 11.3 (≈ 31.7 µM)
5 | Cc1cc(CO)cc(C)c1Oc1ccc([N+](=O)[O-])c(Nc2ccc(C#N)cc2)n1 [Compound I-8, 2-(4-cyanophenylamino)-6-(2,6-dimethyl-4-hydroxymethylphenoxy)-3-nitropyridine] | – | 0.075 (≈ 0.192 µM) | 602 | 45.2 (≈ 116 µM)
6 | C=CCc1cc(C)c(Oc2ccc([N+](=O)[O-])c(Nc3ccc(C#N)cc3)n2)c(C)c1 [Compound I-9, 2-(4-cyanophenylamino)-6-(2,6-dimethyl-4-allylphenoxy)-3-nitropyridine] | – | 0.109 (≈ 0.272 µM) | >917 | > 100
7 | Cc1cc(C=CC#N)cc(C)c1Oc1ccc(N)c(Nc2ccc(C#N)cc2)n1 [Compound I-10, 3-amino-2-(4-cyanophenylamino)-6-(2,6-dimethyl-4-cyanovinylphenoxy)pyridine] | – | 0.0042 (≈ 0.011 µM) | 6,656 | 27.9 (≈ 73.3 µM)
8 | Cc1cc(Br)cc(C)c1Oc1ccc(N)c(Nc2ccc(C#N)cc2)n1 [Compound I-12, 3-amino-2-(4-cyanophenylamino)-6-(2,6-dimethyl-4-bromophenoxy)pyridine] | 190 to 193 | 0.021 (≈ 0.0513 µM) | 259 | 5.44 (≈ 13.3 µM)
9 | C=CCc1cc(C)c(Oc2ccc(N)c(Nc3ccc(C#N)cc3)n2)c(C)c1 [Compound I-13, 3-amino-2-(4-cyanophenylamino)-6-(2,6-dimethyl-4-allylphenoxy)pyridine] | 150 to 152 | 0.09 (≈ 0.243 µM) | 24 | 2.13 (≈ 5.75 µM)
10 | Cc1cc(C(O)C[N+](=O)[O-])cc(C)c1Oc1ccc([N+](=O)[O-])c(Nc2ccc(C#N)cc2)n1 (stereo not shown) [Compound I-14, 2-(4-cyanophenylamino)-6-(2,6-dimethyl-4-(1-hydroxy-2-nitroethyl)phenoxy)-3-nitropyridine] | 230 to 234 | 0.77 (≈ 1.71 µM) | 16 | 12.2 (≈ 27 µM)
11 | Cc1cc(CNC2CC2)cc(C)c1Oc1ccc([N+](=O)[O-])c(Nc2ccc(C#N)cc2)n1 [Compound I-15, 2-(4-cyanophenylamino)-6-(2,6-dimethyl-4-(2-cyclopropylaminomethyl)phenoxy)-3-nitropyridine] | 175 to 177 | – | – | –
12 | Cc1cc(I)cc(C)c1Oc1ccc([N+](=O)[O-])c(Nc2ccc(C#N)cc2)n1 [Compound I-16, 2-(4-cyanophenylamino)-6-(2,6-dimethyl-4-iodophenoxy)-3-nitropyridine] | 162 to 165 | 1.18 (≈ 2.43 µM) | 61 | 72.2 (≈ 148 µM)
13 | Cc1cc(C#CC(C)(C)O)cc(C)c1Oc1ccc([N+](=O)[O-])c(Nc2ccc(C#N)cc2)n1 [Compound I-18, 2-(4-cyanophenylamino)-6-(2,6-dimethyl-4-(3-methyl-3-hydroxy-1-butynyl)phenoxy)-3-nitropyridine] | 114 to 116 | – | – | –
14 | Cc1cc(C#CC2CC2)cc(C)c1Oc1ccc([N+](=O)[O-])c(Nc2ccc(C#N)cc2)n1 [Compound I-20, 2-(4-cyanophenylamino)-6-(2,6-dimethyl-4-(cyclopropylethynyl)phenoxy)-3-nitropyridine] | 188 to 192 | – | – | –
15 | Cc1cc(C#CC2CC2)cc(C)c1Oc1ccc(N)c(Nc2ccc(C#N)cc2)n1 [Compound I-21, 3-amino-2-(4-cyanophenylamino)-6-(2,6-dimethyl-4-(cyclopropylethynyl)phenoxy)pyridine] | 82 to 85 | – | – | –
16 | C#Cc1cc(C)c(Oc2ccc([N+](=O)[O-])c(Nc3ccc(C#N)cc3)n2)c(C)c1 [Compound I-22, 2-(4-cyanophenylamino)-6-(2,6-dimethyl-4-ethynylphenoxy)-3-nitropyridine] | 186 to 188 | 0.26 (≈ 0.676 µM) | 256 | 66.7 (≈ 173 µM)
17 | C#Cc1cc(C)c(Oc2ccc(N)c(Nc3ccc(C#N)cc3)n2)c(C)c1 [Compound I-23, 3-amino-2-(4-cyanophenylamino)-6-(2,6-dimethyl-4-ethynylphenoxy)pyridine] | 79 to 82 | 0.15 (≈ 0.423 µM) | 19 | 2.92 (≈ 8.24 µM)
18 | Cc1cc(N)cc(C)c1Oc1ccc(N)c(Nc2ccc(C#N)cc2)n1 [Compound I-24, 3-amino-2-(4-cyanophenylamino)-6-(2,6-dimethyl-4-aminophenoxy)pyridine] | 195 to 198 | – | – | –
19 | Cc1cc(I)cc(C)c1Oc1ccc(N)c(Nc2ccc(C#N)cc2)n1 [Compound I-25, 3-amino-2-(4-cyanophenylamino)-6-(2,6-dimethyl-4-iodophenoxy)pyridine] | – | 0.036 (≈ 0.0789 µM) | 298 | 10.7 (≈ 23.5 µM)
20 | N#Cc1ccc(Nc2nc(Oc3c(Br)cc(Br)cc3Br)ccc2[N+](=O)[O-])cc1 [Compound I-26, 2-(4-cyanophenylamino)-6-(2,4,6-tribromophenoxy)-3-nitropyridine] | 188 to 191 | 0.179 (≈ 0.315 µM) | 151 | 27 (≈ 47.4 µM)
21 | N#Cc1ccc(Nc2nc(Oc3c(Br)cc(C=O)cc3Br)ccc2[N+](=O)[O-])cc1 [Compound I-27, 2-(4-cyanophenylamino)-6-(2,6-dibromo-4-formylphenoxy)-3-nitropyridine] | 218 to 220 | 0.152 (≈ 0.293 µM) | – | 0.78 (≈ 1.51 µM)
22 | N#Cc1ccc(Nc2nc(Oc3c(Br)cc(CO)cc3Br)ccc2[N+](=O)[O-])cc1 [Compound I-28, 2-(4-cyanophenylamino)-6-(2,6-dibromo-4-hydroxymethylphenoxy)-3-nitropyridine] | 209 to 213 | 0.253 (≈ 0.486 µM) | 145 | 36.3 (≈ 69.8 µM)
23 | N#Cc1ccc(Nc2nc(Oc3c(F)cccc3F)ccc2[N+](=O)[O-])cc1 [Compound I-29, 2-(4-cyanophenylamino)-6-(2,6-difluorophenoxy)-3-nitropyridine] | 234 to 236 | 15.9 (≈ 43.2 µM) | 2 | 39.7 (≈ 108 µM)
24 | N#CC=Cc1cc(Br)c(Oc2ccc([N+](=O)[O-])c(Nc3ccc(C#N)cc3)n2)c(Br)c1 [Compound I-30, 2-(4-cyanophenylamino)-6-(2,6-dibromo-4-cyanovinylphenoxy)-3-nitropyridine] | 223 to 226 | 0.045 (≈ 0.0832 µM) | 551 | 24.8 (≈ 45.8 µM)
